± gives the standard deviation of the averaged measurements.
Legend:
Test in all cases: level (log10 ratio to DMSO vehicle control); higher = higher biomarker level / cell amount than vehicle control
Conditions in all cases: in DMSO
[1] = compound: Cn1cnc([N+](=O)[O-])c1Sc1ncnc2[nH]cnc12 [Azathioprine]
Method: (§1)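 BioMAP Diversity Plus panel of 12 human primary cell co-culture systems (3C, 4H, LPS, SAg, BT, BF4T, BE3C, CASM3C, HDF3CGF, KF3CT, MyoF, Mphg). Compounds were added 1 h before stimulation and left for 24 h (MyoF 48 h; BT 72 h for soluble read-outs or 6 d for IgG). Biomarkers were read by ELISA, cytotoxicity by SRB, PBMC viability and proliferation by Alamar Blue. Each well value was divided by the mean of 8 DMSO control wells on the same plate and log10 transformed; duplicate blinded samples were tested at 4 concentrations.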

[2] = compound: NC(=O)C(F)(F)C(F)(F)C(F)(F)C(F)(F)C(F)(F)C(F)(F)C(F)(F)F [Perfluorooctanamide]
Method: as §1

[3] = compound: O=C(O)C(F)(F)C(F)(F)C(F)(F)C(=O)O [Hexafluoroglutaric acid]
Method: as §1

[4] = compound: O=C(O)C(F)(F)C(F)(F)C(F)(F)C(F)(F)C(F)(F)C(F)(F)C(F)(F)C(F)(F)C(F)(F)C(F)(F)C(F)(F)C(F)(F)C(F)(F)F [Perfluorotetradecanoic acid]
Method: as §1

[5] = compound: O=C(O)C(F)(F)C(F)(F)C(F)(F)C(F)(F)C(F)(F)C(F)(F)C(F)(F)C(F)(F)C(F)(F)C(F)(F)C(F)(F)C(F)(F)F [Perfluorotridecanoic acid]
Method: as §1

[6] = compound: OCC(F)(F)C(F)(F)C(F)(F)F [1H,1H-Heptafluorobutanol]
Method: as §1

Test System	level (log10) ([1]; 1400 nM)	level (log10) ([1]; 4200 nM)	level (log10) ([1]; 13000 nM)	level (log10) ([1]; 38000 nM)	level (log10) ([2]; 6700 nM)	level (log10) ([2]; 20000 nM)	level (log10) ([2]; 60000 nM)	level (log10) ([3]; 6700 nM)	level (log10) ([3]; 20000 nM)	level (log10) ([3]; 60000 nM)	level (log10) ([4]; 6700 nM)	level (log10) ([4]; 20000 nM)	level (log10) ([5]; 1500 nM)	level (log10) ([5]; 4400 nM)	level (log10) ([5]; 13000 nM)	level (log10) ([5]; 40000 nM)	level (log10) ([6]; 6700 nM)	level (log10) ([6]; 20000 nM)	level (log10) ([6]; 60000 nM)
SAg:CD69	0.0215 ± 0.044	-0.0295 ± 0.016	-0.039 ± 0.018	-0.12 ± 0.013	-0.002 ± 0.028	0.0025 ± 0.013	-0.0065 ± 0.023	-0.0125 ± 0.0064	-0.016 ± 0.013	0.005 ± 0.0042	-0.0155 ± 0.016	-0.018 ± 0.028	-0.0075 ± 0.037	-0.053 ± 0.03	-0.0305 ± 0.025	-0.0685 ± 0.0078	-0.013 ± 0.017	-0.0035 ± 0.016	0.02 ± 0.016
SAg:CXCL8/IL-8	0.022 ± 0.1	-0.038 ± 0.061	-0.13 ± 0.021	-0.304 ± 0.013	-0.019 ± 0.041	-0.0255 ± 0.0021	0.056	-0.011	-0.041 ± 0.042	0.0285 ± 0.077	-0.028 ± 0.051	0.0035 ± 0.069	0.018 ± 0.072	-0.0025 ± 0.021	-0.001 ± 0.0057	0.0035 ± 0.09	0.012 ± 0.0085	-0.0055 ± 0.0021	-0.0045 ± 0.1
SAg:CXCL9/MIG	0.006 ± 0.024	0.002 ± 0.0057	0.0025 ± 0.0078	0.008 ± 0.0085	-0.0075 ± 0.005	-0.0025 ± 0.012	0.009 ± 0.0057	-0.0015 ± 0.00071	-0.012 ± 0.0042	-0.0005 ± 0.005	-0.004 ± 0.014	0.001 ± 0.0085	-0.002 ± 0.0028	-0.013	-0.016 ± 0.0028	0.0035 ± 0.018	-0.003 ± 0.031	-0.001 ± 0.018	0.018 ± 0.014
SAg:PBMC Cytotoxicity	-0.007 ± 0.033	-0.0015 ± 0.044	-0.0385 ± 0.03	-0.0635 ± 0.023	-0.027 ± 0.038	-0.0135 ± 0.025	0.024 ± 0.034	0.0035 ± 0.0078	0.014 ± 0.0042	-0.005 ± 0.058	-0.051 ± 0.014	-0.016 ± 0.024	-0.0045 ± 0.021	0.0025 ± 0.0021	-0.061 ± 0.042	-0.0085 ± 0.028	-0.0165 ± 0.012	-0.024 ± 0.024	0.0155 ± 0.047
SAg:Proliferation	-0.017 ± 0.047	-0.052 ± 0.035	-0.172 ± 0.005	-0.29 ± 0.021	-0.05 ± 0.071	-0.0255 ± 0.033	-0.001 ± 0.0014	-0.019 ± 0.0071	-0.0445 ± 0.033	-0.0275 ± 0.013	-0.038 ± 0.045	-0.014 ± 0.025	-0.019 ± 0.047	-0.0125 ± 0.005	-0.066 ± 0.023	-0.036 ± 0.031	0.009 ± 0.0042	0.008 ± 0.02	0.0125 ± 0.021
SAg:SRB	0.002 ± 0.0057	0.0045 ± 0.013	-0.009 ± 0.0042	-0.0205 ± 0.026	0.002 ± 0.0071	-0.0005 ± 0.0064	-0.009 ± 0.0014	-0.0055 ± 0.00071	-0.0105 ± 0.016	-0.0035 ± 0.016	-0.0025 ± 0.013	-0.008 ± 0.024	-0.0015 ± 0.011	-0.0095 ± 0.0035	-0.0045 ± 0.012	-0.0335 ± 0.026	-0.0055 ± 0.011	0.0045 ± 0.0035	0.004 ± 0.0057

Source: the supplement of paper PMC10331698
